Assay results as given in patent publication US20250331522A1, “CHLORINE DIOXIDE […] TO PREVENT BLACK ROT DISEASE AND PROMOTE WOUND HEALING IN SWEETPOTATO” (Zhejiang A&F University, priority 2024, published 2025).

Legend:
[1] = tested on: C. fimbriata in sweetpotato; assay: Inhibitory effect on the growth of C. fimbriata in inoculated sweetpotato (lesion diameter and depth); format: in vivo, Ceratocystis fimbriata; Xinxiang sweetpotatoes; conditions: fumigation 30 h, storage 15 days at 25° C., humidity 85%
Method: (§1) C. fimbriata preserved at −80° C. is thawed and resuscitated at 4° C., 200 μL C. fimbriata is taken into 15 mL PDA medium plates in the ultra-clean table and cultured at 28° C. for 7 d. After 7 d, 5 colonies of C. fimbriata are picked on the medium and inoculated into the expanding culture medium with an inoculation needle for further culture for 7 d. After 7 days, some of the expanding culture plates are used to prepare fungus pieces, and some plates are used to prepare spore suspension. Sterile water is added into the culture plate, the mycelium is scraped and filtered through four layers of sterile gauze to remove the mycelium and medium impurities, and the spore suspension of C. fimbriata is obtained. The spore concentration is calculated by the blood cell counting plate, and adjusted to 10^6 spore/mL.
The inhibitory effect of the combined reagents prepared by the method described in Embodiments 1-3 on the growth of C. fimbriata in sweetpotato is investigated, the method is as follows: […]

[2] = tested on: sweetpotato wounds inoculated with C. fimbriata; assay: Promotion of wound-healing ability of sweetpotatoes (disease index after re-inoculation with C. fimbriata); format: in vivo, Xinxiang sweetpotatoes; Ceratocystis fimbriata; conditions: fumigation 30 h; spores applied on day 0, 1, 3, 5, 7 of healing; incidence counted after 7 days
Method: The effects of the combined reagents prepared by the method described in Embodiments 1-3 on promoting the wound-healing ability of sweetpotatoes are investigated, the method is as follows: […]
After the treatment, the fresh-keeping box is first ventilated, and the sweetpotatoes are transferred into a normal storage incubator (25° C., humidity 85%) for storage. During the storage of sweetpotatoes, 20 μL of fungus solution with a spore concentration of 10^6 spore/mL prepared in Embodiment 4 is evenly applied to the surface of the wounds on the 0th, 1st, 3rd, 5th and 7th day, respectively, the incidence of the disease after 7 days is counted and the disease index is calculated. […] The sweetpotatoes with perforation damage but without ClO2 treatment are used as the control group, and the disease index is calculated by the following formula: […]

C. fimbriata = assay: Inhibition of C. fimbriata in vitro (colony diameter on PDA plate after ClO2 fumigation); format: cell-based, Ceratocystis fimbriata; conditions: ClO2 fumigation 4 h, culture 15 d
Method: as §1, with “Sterile water is added into the culture plate, the mycelium is scraped and filtered through four layers of sterile gauze to remove the mycelium and medium impurities, and the spore suspension of C. fimbriata is obtained.” left out, “spore/mL. […]” for “spore/mL.”
The expanding culture plate of C. fimbriata cultured in Embodiment 4 is selected, and the fungus piece is prepared by using a 10 mm sterile puncher, the fungus piece is reversely connected to the center of the PDA medium, and the PDA plate is placed in a 10 L fresh-keeping box, and the combined reagents prepared by the method described in Embodiments 1-3 are added, the plate is fumigated with ClO2 for 4 h, the culture plate is moved into a constant temperature incubator at 27° C. for 15 d after the treatment. The colony diameter of the culture plate is measured by the cross method every 3 days, the measurement is repeated three times, and the plate without ClO2 fumigation is used as the blank control.

Compound: [O][Cl+][O-] [ClO2, chlorine dioxide]
- diameters and depths of the lesion of inoculated sweetpotatoes (in words) [1]: decreases significantly with the increase of treatment concentration
- resistance to infection / wound healing of sweetpotatoes (disease index, in words) [2]: after 5 days of healing can completely resist the infection of pathogenic fungus
- growth of C. fimbriata (in words) (C. fimbriata): directly inhibit the growth of C. fimbriata
